{"source": "BindingDB's records for doi:10.1074/jbc.M413155200", "about": "(Vertex Pharmaceuticals, 2005)", "biological_target": "Serine/threonine-protein kinase pim-1 (Homo sapiens, UniProt P11309)", "sequence (P11309 whole entry)": "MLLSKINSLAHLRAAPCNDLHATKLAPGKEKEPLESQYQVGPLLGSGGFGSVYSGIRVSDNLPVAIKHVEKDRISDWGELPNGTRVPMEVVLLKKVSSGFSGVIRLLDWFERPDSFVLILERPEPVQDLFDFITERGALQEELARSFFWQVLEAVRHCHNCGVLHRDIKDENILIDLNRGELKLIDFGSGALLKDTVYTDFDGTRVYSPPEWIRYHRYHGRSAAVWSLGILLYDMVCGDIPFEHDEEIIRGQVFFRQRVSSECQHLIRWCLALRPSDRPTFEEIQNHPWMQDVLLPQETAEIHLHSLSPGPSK", "assay": "Kinase Assay", "details": "pH 7.6; 30 °C"}
{"smiles": "COC(=O)[C@@]1(O)C[C@H]2O[C@]1(C)n1c3ccccc3c3c4c(c5c6ccccc6n2c5c31)C(=O)NC4", "values": [{"measurement": "IC50", "result": 150, "unit": "nM"}]}
